{"source": "patent US5427766A", "about": "“Radiolabeled steroids for use in radiochemical-guided surgery” (priority 1993, dated 1995)", "experiment": "physchem", "assay_type": "physicochemical", "conditions": "solid state", "description": "(Z)-Stannyl olefin 4 (25 mg, 41 μmol) was added to 1 mL of chloroform and iodine (10.9 mg, […]) was added with stirring. Rapid decoloration took place and an additional amount of iodine (1 mg) was added which imparted a pink color. Several drops of methanolic potassium fluoride was added which precipitated a tin complex. To the slurry was added 0.5 mL of saturated […] and the organic phase was separated, dried over sodium sulfate and evaporated to give an oil. This material was chromatographed using 2 percent methanol in chloroform on a 1 cm×10 cm flash gel column to give (Z)-iodo olefin 5 (15.3 mg) in 84 percent yield as a white solid.", "data": [{"smiles": "CC[C@H]1C[C@@]2(C)[C@@H](CC[C@@]2(O)/C=C\\I)[C@@H]2CCc3cc(O)ccc3[C@@H]12", "note": "[(Z)-iodo olefin 5, 11β-Ethyl-17α-(Z)-(iodovinyl)estra-3,17β-diol]", "values": [{"measurement": "protodestannylation in product", "setting": "a week at 25° C., HPLC 254 nm", "value": 3.4, "unit": "area percent"}, {"measurement": "suspect (E)-iodo", "setting": "a week at 25° C., HPLC 254 nm", "value": 10.9, "unit": "area percent"}, {"measurement": "remaining at 168 h", "value": 74, "unit": "%"}]}]}
